Results as given in patent publication US20030236291A1, “Use of citreamicins” (priority 2000, published 2003).

Columns and labels:
Assay type in all cases: cell-based
[1] = tested on: P388 (ATCC CCL-46, suspension culture of a lymphoid neoplasm from DBA/2 mouse); assay: In vitro antitumor screening, growth inhibition of P388 cells
From the text: (§1) Its antitumor activity has been detected in vitro by culturing the tumor cells following the methodology described by
(§2) (1): Raymond I. Bergeron, Paul F. Cavanaugh, Jr., Steven J. Mine, Robert G. Hughes, Jr., Gary T. Elliot and Carl W. Porter. Antineoplastic and antiherpetic activity of spermidine catecholamide iron chelators. Biochem. Bioph. Res. Comm. 1984, 121(3): 848-854; and
(§3) (2). Alan C. Schroeder, Robert G. Hughes, Jr. and Alexander Bloch. Effects of Acycic Pyrimidine Nucleoside Analoges. J. Med. Chem. 1981, 24:1078-1083.
(§4) Cells were maintained in logarithmic phase of growth in Eagle's Minimum Essential Medium, with Earle's Balanced Salts, with 2.0 mM L-glutamine, with non-essential amino acids, without sodium bicarbonate (EMEM/neaa); supplemented with 10% Fetal Calf Serum (FCS), 10^−2 M sodium bicarbonate and 0.1 g/l penicillin-G +streptomycin sulfate.
A screening procedure has been carried out to determine and compare the antitumor activity of citreamicin CL, using an adapted form of the method described by Bergeron et al. The antitumor cells employed were P388 (ATCC CCL-46, suspension culture of a lymphoid neoplasm from DBA/2 mouse), A549 (ATCC CCL-185, monolayer culture of a human lung carcinoma) and HT-29 (ATCC HTB-38, monolayer culture of a human colon carcinoma). […]

[2] = tested on: A549 (ATCC CCL-185, monolayer culture of a human lung carcinoma); assay: In vitro antitumor screening, growth inhibition of A549 cells (Crystal Violet); settings: approximate IC50; three days of incubation at 37° C.; Crystal Violet staining; duplicate
From the text: as §1, §2, §3
as §4, with “sulfate. […]” for “sulfate.”
(§5) A549 and HT-29 cells were seeded into 16 mm wells at 2×10^4 cells per well in 1 ml aliquots of MEM 1OFCS containing the indicated concentration of drug. […] An approximate IC50 was determined by comparing the growth in wells with drug to the growth in wells control.

[3] = tested on: HT-29 (ATCC HTB-38, monolayer culture of a human colon carcinoma); assay: In vitro antitumor screening, growth inhibition of HT-29 cells (Crystal Violet); settings: approximate IC50; three days of incubation at 37° C.; Crystal Violet staining; duplicate
From the text: as §1, §2, §3
as §4, with “sulfate. […]” for “sulfate.”
as §5

IC50 ([1]; approximate IC50, three days of incubation at 37° C., growth in wells with drug vs control wells, duplicate): 3 nM
IC50 [2]: 4 nM
IC50 [3]: 4 nM
Structure (SMILES): COc1cc2oc3c(c(=O)c2cc1OC)C(=O)c1c(ccc2cc4c(c(O)c12)C(=O)N1C(C)(C4)OC(=O)C1(C)COC(=O)CC(C)C)C3=O (stereo not drawn) [Citreamicin α, citreamicin α]
in vitro antitumor activity ([1]; cell line derived from mouse lymphoma): exhibits in vitro antitumor activity
